Assay results as given in patent US10695337B2, “Piperidin-4-yl azetidine derivatives as JAK1 inhibitors” (Incyte Corporation, priority 2010, dated 2020).

Target: human JAK1 (a.a. 837-1142)
Test: In vitro JAK kinase assay (HTRF, phosphorylation of a biotinylated peptide), JAK1
Assay type: biochemical
Conditions: measured at 1 mM ATP; JAK2 IC50 / JAK1 IC50
Procedure, shortened: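 Phosphorylation of a biotinylated peptide by purified His-tagged JAK catalytic domains (insect-cell baculovirus expression) ran 1 hr at room temperature. After stopping with EDTA, Eu-Py20 and SA-APC were bound for 40 minutes and HTRF measured.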

Structure (SMILES) | IC50 Ratio JAK2/JAK1
N#CCC1(n2ccc(-c3ncnc4[nH]ccc34)c2)CN(C2CCN(C(=O)c3cnc(C(F)(F)F)cn3)CC2)C1 [Example 347, [3-[3-(7H-Pyrrolo[2,3-d]pyrimidin-4-yl)-1H-pyrrol-1-yl]-1-(1-{[5-(trifluoromethyl)pyrazin-2-yl]carbonyl}piperidin-4-yl)azetidin-3-yl]acetonitrile] | 2.7
CS(=O)(=O)N1CCC(N2CC(CC#N)(n3ccc(-c4ncnc5[nH]ccc45)c3)C2)CC1 [Example 348, {1-[1-(Methylsulfonyl)piperidin-4-yl]-3-[3-(7H-pyrrolo[2,3-d]pyrimidin-4-yl)-1H-pyrrol-1-yl]azetidin-3-yl}acetonitrile] | 3.2
N#CCC1(n2cc(-c3ccnc4[nH]ccc34)cn2)CN(C2CCN(C(=O)c3nc(C(F)(F)F)cs3)CC2)C1 [Example 350, [3-[4-(1H-Pyrrolo[2,3-b]pyridin-4-yl)-1H-pyrazol-1-yl]-1-(1-{[4-(trifluoromethyl)-1,3-thiazol-2-yl]carbonyl}piperidin-4-yl)azetidin-3-yl]acetonitrile] | 15.0
CS(=O)(=O)N1CCC(N2CC(CC#N)(n3cc(-c4ccnc5[nH]ccc45)cn3)C2)CC1 [Example 351, {1-[1-(Methylsulfonyl)piperidin-4-yl]-3-[4-(1H-pyrrolo[2,3-b]pyridin-4-yl)-1H-pyrazol-1-yl]azetidin-3-yl}acetonitrile] | 3.8
N#CCC1(n2cc(-c3c(F)cnc4[nH]ccc34)cn2)CN(C2CCN(C(=O)c3ccnc(C(F)(F)F)n3)CC2)C1 [Example 353, [3-[4-(5-Fluoro-1H-pyrrolo[2,3-b]pyridin-4-yl)-1H-pyrazol-1-yl]-1-(1-{[2-(trifluoromethyl)pyrimidin-4-yl]carbonyl}piperidin-4-yl)azetidin-3-yl]acetonitrile] | 5.0
N#CCC1(n2cc(-c3c(F)cnc4[nH]ccc34)cn2)CN(C2CCN(C(=O)c3cnc(C(F)(F)F)cn3)CC2)C1 [Example 354, [3-[4-(5-Fluoro-1H-pyrrolo[2,3-b]pyridin-4-yl)-1H-pyrazol-1-yl]-1-(1-{[5-(trifluoromethyl)pyrazin-2-yl]carbonyl}piperidin-4-yl)azetidin-3-yl]acetonitrile] | 2.1
CS(=O)(=O)N1CCC(N2CC(CC#N)(n3cc(-c4c(F)cnc5[nH]ccc45)cn3)C2)CC1 [Example 355, {3-[4-(5-Fluoro-1H-pyrrolo[2,3-b]pyridin-4-yl)-1Hpyrazol-1-yl]-1-[1-(methylsulfonyl)piperidin-4-yl]azetidin-3-yl}acetonitrile] | 3.1
N#CCC1(n2cc(-c3c(C#N)cnc4[nH]ccc34)cn2)CN(C2CCN(C(=O)c3cc(C(F)(F)F)ncc3F)CC2)C1 [Example 356, 4-[1-(3-(Cyanomethyl)-1-{1-[5-fluoro-2-(trifluoromethyl)isonicotinoyl]piperidin-4-yl}azetidin-3-yl)-1H-pyrazol-4-yl]-1H-pyrrolo[2,3-b]pyridine-5-carbonitrile] | 5.8
CS(=O)(=O)N1CCC(N2CC(CC#N)(n3cc(-c4c(C#N)cnc5[nH]ccc45)cn3)C2)CC1 [Example 357, 4-(1-{3-(Cyanomethyl)-1-[1-(methylsulfonyl)piperidin-4-yl]azetidin-3-yl}-1H-pyrazol-4-yl)-1H-pyrrolo[2,3-b]pyridine-5-carbonitrile] | 3.8
CN(C)Cc1cc(C(=O)N2CCC(N3CC(CC#N)(n4cc(-c5ncnc6[nH]ccc56)cn4)C3)CC2)nc(C(F)(F)F)n1 [Example 370, {1-(1-{[6-[(dimethylamino)methyl]-2-(trifluoromethyl)pyrimidin-4-yl]carbonyl}piperidin-4-yl)-3-[4-(7H-pyrrolo[2,3-d]pyrimidin-4-yl)-1H-pyrazol-1-yl]azetidin-3-yl}acetonitrile] | 55
CCN(C)Cc1cc(C(=O)N2CCC(N3CC(CC#N)(n4cc(-c5ncnc6[nH]ccc56)cn4)C3)CC2)nc(C(F)(F)F)n1 [Example 374] | 50
